Assay results from the NIST ThermoML archive (doi:10.1021/je700363m).
Numbers after ± are expanded uncertainties.

Assay: wn = mass fraction of the nth substance listed
Settings: 101 kPa, Liquid; for viscosity: Capillary tube (Ostwald / Ubbelohde) method

Structure (SMILES) | viscosity (298.15 K, w1 = 0.0931) [mPa·s] | mass density (298.15 K, w1 = 0.049) [kg/m3] | mass density (298.15 K, w1 = 0.0538) [kg/m3] | mass density (298.15 K, w1 = 0.0653) [kg/m3] | viscosity (313.15 K, w1 = 0.0931) [mPa·s] | viscosity (313.15 K, w1 = 0.0478) [mPa·s] | viscosity (313.15 K, w1 = 0.0906) [mPa·s] | mass density (313.15 K, w1 = 0.02) [kg/m3] | mass density (313.15 K, w1 = 0.05) [kg/m3] | viscosity (319.15 K, w1 = 0.155) [mPa·s] | mass density (319.15 K, w1 = 0.155) [kg/m3] | viscosity (323.25 K, w1 = 0.172) [mPa·s] | mass density (323.25 K, w1 = 0.172) [kg/m3] | mass density (333.15 K, w1 = 0.02) [kg/m3] | mass density (333.15 K, w1 = 0.05) [kg/m3] | mass density (333.32 K, w1 = 0.214) [kg/m3] | viscosity (333.35 K, w1 = 0.214) [mPa·s]
[K+].[K+].[O]=[Cr](=[O])([O-])[O-] [potassium chromate(VI)] + O | 0.9285 ± 0.0077 | 1034.6 ± 1 | 1038.3 ± 1 | 1046.8 ± 1 | 0.7309 ± 0.0062 | – | – | – | – | – | – | – | – | – | – | – | –
[K+].[K+].[O]=[Cr](=[O])([O-])[O][Cr](=[O])(=[O])[O-] [potassium dichromate] + O | – | – | – | – | – | 0.6465 ± 0.0055 | 0.6805 ± 0.0058 | 1006.5 ± 1.1 | 1026.8 ± 1.2 | 0.6914 ± 0.0059 | 1166.5 ± 1.4 | 0.6658 ± 0.0057 | 1184.2 ± 1.5 | 997 ± 1.3 | 1016.4 ± 1.3 | 1232.1 ± 1.6 | 0.6307 ± 0.0054
